According to patent publication US20220017516A1, “LOX INHIBITORS” (THE INSTITUTE OF CANCER RESEARCH: ROYAL CANCER HOSPITAL, priority 2018, published 2022):
Read-outs that look alike come from different tables or passages of the source.

What was measured:
LOX = target: T1, LOX (Sus scrofa, UniProt P45845); assay: LOX isoform activity assay (ROS Glo), LOX; type: biochemical, pig; conditions: 1 h incubation with enzyme
T1 construct: LOX was extracted from pig skin by previously described methods; from tissue; host or cells: pig skin
T1 sequence (P45845 1-249): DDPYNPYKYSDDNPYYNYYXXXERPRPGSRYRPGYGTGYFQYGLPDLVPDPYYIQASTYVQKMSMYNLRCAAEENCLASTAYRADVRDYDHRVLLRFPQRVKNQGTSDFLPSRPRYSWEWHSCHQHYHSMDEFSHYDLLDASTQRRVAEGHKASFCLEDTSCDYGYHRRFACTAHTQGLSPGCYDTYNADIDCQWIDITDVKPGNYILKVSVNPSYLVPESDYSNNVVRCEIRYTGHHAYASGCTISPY
Experimental: (§1) LOX was extracted from pig skin by previously described methods (Shackleton and Hulmes, 1990). LOXL2 and LOXL3 were obtained from R&D Systems/Bio-techne. The Promega ROS Glo assay kit (G8821) was used to assess enzyme activity. Overall, test compound was added to either 384 well assay plates (Greiner) using a Labcyte Echo™ Acoustic Handler or to 96 well plates for a final assay concentration of 100, 30, 10, 3, 1, 0.3, 0.1, 0.03, 0.01 and 0.003 μM final assay concentration. Enzymes were diluted according to specific pre-determined activity in assay buffer (100 mM CHES, pH 9, 0.05% (w/v) pluronic F-127, 0.5% (w/v) BSA, 1 mM MgCl2, 1 M urea, 100 mM NaCl) and added to the plate. For LOXL2, the mixture was incubated for 20 min, 1 h or 20 h; for LOX and LOXL3, incubation time was 1 h. Cadaverine and H2O2 substrate were then added to each well (final assay concentration 19.56 mM and 25 μM respectively) and the plates were incubated for 1.5 h (for LOX) or 1 h (for LOXL2 and LOXL3) at room temperature. Finally, luciferin detection reagent was added and plates were incubated for 20 min at room temperature, protected from light. Luminescence was measured using a BMG LABTECH PHERAstar FS reader and resulting IC50 values were calculated using GraphPad Prism software.

LOXL2 = target: T2, LOXL2 (Homo sapiens, UniProt Q9Y4K0); assay: LOX isoform activity assay (ROS Glo), LOXL2; type: biochemical
T2 construct: purchased R&D Systems/Bio-techne
T2 sequence (Q9Y4K0 26-774): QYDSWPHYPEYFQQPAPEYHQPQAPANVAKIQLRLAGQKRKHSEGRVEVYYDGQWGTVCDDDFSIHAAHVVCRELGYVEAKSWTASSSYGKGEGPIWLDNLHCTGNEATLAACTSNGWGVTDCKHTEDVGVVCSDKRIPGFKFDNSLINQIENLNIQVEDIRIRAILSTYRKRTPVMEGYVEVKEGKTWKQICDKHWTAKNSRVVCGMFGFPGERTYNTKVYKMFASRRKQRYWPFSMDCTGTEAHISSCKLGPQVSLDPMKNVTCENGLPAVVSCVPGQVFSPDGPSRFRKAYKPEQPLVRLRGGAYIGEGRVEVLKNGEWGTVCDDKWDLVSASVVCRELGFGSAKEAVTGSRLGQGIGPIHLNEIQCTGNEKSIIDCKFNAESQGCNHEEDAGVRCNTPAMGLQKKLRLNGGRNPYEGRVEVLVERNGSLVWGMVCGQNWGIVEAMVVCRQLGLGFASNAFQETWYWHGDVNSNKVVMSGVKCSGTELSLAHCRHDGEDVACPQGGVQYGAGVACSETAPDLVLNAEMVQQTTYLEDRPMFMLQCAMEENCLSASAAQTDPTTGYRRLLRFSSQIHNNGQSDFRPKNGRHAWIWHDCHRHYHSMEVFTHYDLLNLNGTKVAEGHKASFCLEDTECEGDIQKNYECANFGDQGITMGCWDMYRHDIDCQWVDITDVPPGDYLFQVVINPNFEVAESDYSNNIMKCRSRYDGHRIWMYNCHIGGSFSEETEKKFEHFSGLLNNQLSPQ
Experimental: as §1
In another setting, LOXL2 enzyme was diluted according to specific pre-determined activity in assay buffer (100 mM CHES, pH 9, 0.05% (w/v) pluronic F-127, 0.5% (w/v) BSA, 1 mM MgCl2, 1 M urea, 100 mM NaCl). Overall, 0.5 μl test compound was added to 40 μl assay buffer+LOXL2 at 100, 30, 10, 3, 1, 0.3, 0.1, 0.03, 0.01 and 0.003 μM (final concentration) in a 96-well white polystyrene, flat bottom plates (Fisher) and incubated for the indicated time at room temperature. 10 μl of assay buffer containing 97.8 mM cadaverine and 125 μM H2O2 substrate (final assay concentration 19.56 mM and 25 μM respectively) were added to each well and plates were incubated for 1 h at room temperature. Finally, 50 μl per well luciferin detection reagent was added and plates were incubated for 20 min at room temperature, protected from light. Luminescence was measured with an integration time of 500 ms per well using a SpectaMax M5 plate reader and resulting IC50 values were calculated using GraphPad Prism software.

[1] = target: T3, monoamine oxidase A (MAO-A) (Homo sapiens, UniProt P21397); assay: Amine oxidase activity assay (MAO-Glo), MAO-A; type: biochemical
T3 construct: purchased Promega V1452
T3 sequence (P21397 1-527): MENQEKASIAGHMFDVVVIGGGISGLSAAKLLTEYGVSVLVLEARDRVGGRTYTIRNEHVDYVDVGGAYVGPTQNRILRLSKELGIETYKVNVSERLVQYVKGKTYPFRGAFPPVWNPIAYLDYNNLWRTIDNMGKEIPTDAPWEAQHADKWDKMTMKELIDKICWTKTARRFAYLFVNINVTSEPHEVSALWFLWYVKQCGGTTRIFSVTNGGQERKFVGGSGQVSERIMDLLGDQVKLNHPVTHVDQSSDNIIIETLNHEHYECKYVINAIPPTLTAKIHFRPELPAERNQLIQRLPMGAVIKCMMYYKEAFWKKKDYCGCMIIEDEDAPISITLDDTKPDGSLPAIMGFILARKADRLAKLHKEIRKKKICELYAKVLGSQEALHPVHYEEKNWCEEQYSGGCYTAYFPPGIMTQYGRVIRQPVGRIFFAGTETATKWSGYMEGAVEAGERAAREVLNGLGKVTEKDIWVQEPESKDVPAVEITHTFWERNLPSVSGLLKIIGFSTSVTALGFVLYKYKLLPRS
Experimental: (§2) The Promega MAO-Glo assay kit (V1402) was used to assess monoamine oxidase A (MAO-A) and monoamine oxidase B (MAO-B) activity. MAO substrate was prepared at 80 μM with the specific MAO-A/B reaction buffer. Overall, 0.5 μl test compound was added to 25 μl MAO substrate at 100, 30, 10, 3, 1, 0.3, 0.1, 0.03, 0.01 and 0.003 μM (final concentration) in a 96-well white, flat bottom plate. Overall, 25 μl of 1:520 dilution of MAO-A enzyme (Promega, V1452) or 25 μl of 1:52 dilution of MAO-B enzyme (Sigma, M7441) in specific MAO-A/B reaction buffer was added to each well (enzyme prepared at 2×final concentration) and plates were incubated for 1 h at room temperature. Finally, 50 μl per well luciferin detection reagent was added and plates were incubated for 20 min at room temperature, protected from light. Luminescence was measured with an integration time of 500 ms per well using a SpectaMax M5 plate reader and resulting IC50 values were calculated using GraphPad Prism software.
(§3) In another setting, the DAO and MAO assays were performed in 384-well plates (Greiner) and test compound was added using a Labcyte Echo™ Acoustic Handler for the same final concentrations as in the 96-well setting. Luminescence was measured with BMG LABTECH PHERAstar FS plate reader.

[2] = target: T4, monoamine oxidase B (MAO-B) (Homo sapiens, UniProt P27338); assay: Amine oxidase activity assay (MAO-Glo), MAO-B; type: biochemical
T4 construct: purchased Sigma M7441
T4 sequence (P27338 1-520): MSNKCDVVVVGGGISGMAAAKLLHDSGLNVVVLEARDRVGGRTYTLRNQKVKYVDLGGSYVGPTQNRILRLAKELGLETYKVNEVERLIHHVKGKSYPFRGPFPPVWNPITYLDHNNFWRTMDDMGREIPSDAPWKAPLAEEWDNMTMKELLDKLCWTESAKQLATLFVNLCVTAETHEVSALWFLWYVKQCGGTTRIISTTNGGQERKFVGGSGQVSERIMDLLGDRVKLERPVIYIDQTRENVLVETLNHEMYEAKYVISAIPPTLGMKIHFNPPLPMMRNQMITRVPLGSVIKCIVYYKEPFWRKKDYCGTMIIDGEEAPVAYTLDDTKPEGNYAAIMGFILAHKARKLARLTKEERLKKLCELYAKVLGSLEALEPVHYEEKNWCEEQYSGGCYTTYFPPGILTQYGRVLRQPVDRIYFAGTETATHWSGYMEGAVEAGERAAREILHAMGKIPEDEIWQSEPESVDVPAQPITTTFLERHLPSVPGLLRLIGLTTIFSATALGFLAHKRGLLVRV
Experimental: as §2, §3

[3] = 20 hr incubation with enzyme; read-out: LOXL2 IC50 c) 20 hr
[4] = 20 min incubation with enzyme; read-out: LOXL2 IC50 a) 20 min
[5] = 1 hr incubation with enzyme; read-out: LOXL2 IC50 b) 1 hr

CCNC(=O)N1C[C@@H]2CN(c3ccc(OCCCS(=O)(=O)CCN)cc3)[C@H](C1)C(C)(C)C2 [Example 36, (1S,5S)-6-(4-(3-((2-aminoethyl)sulfonyl)propoxy)phenyl)-N-ethyl-9,9-dimethyl-3,6-diazabicyclo[3.2.2]nonane-3-carboxamide]
IC50 (LOX): 4.5 µM | IC50 (LOXL2; [3]): 5.1 µM

CC1(C)C[C@@H]2CN(C(=O)NCCO)C[C@H]1N(c1ccc(OCCCS(=O)(=O)CCN)cc1)C2 [Example 34, (1S,5S)-6-(4-(3-((2-aminoethyl)sulfonyl)propoxy)phenyl)-N-(2-hydroxyethyl)-9,9-dimethyl-3,6-diazabicyclo[3.2.2]nonane-3-carboxamide]
IC50 (LOXL2; [3]): 9.3 µM

CC1(C)C[C@@H]2CN(CCS(=O)(=O)CCN)C[C@H]1N(c1ccc(N3CCS(=O)(=O)CC3)cc1)C2 [Example 5, 4-(4-((1R,5S)-3-(2-((2-aminoethyl)sulfonyl)ethyl)-9,9-dimethyl-3,6-diazabicyclo[3.2.2]nonan-6-yl)phenyl)thiomorpholine 1,1-dioxide]
IC50 (LOXL2; [3]): 0.48 µM

CCOc1ccc(N2C[C@@H]3CC[C@H]2CN(C(=O)CS(=O)(=O)CCN)C3)cc1 [Example 9, 2-((2-aminoethyl)-sulfonyl)-1-((1S,5S)-6-(4-ethoxyphenyl)-3,6-diazabicyclo-[3.2.2]nonan-3-yl)-ethan-1-one]
IC50 (LOX): > 100 µM | IC50 (LOXL2; [3]): 0.34 µM

CCOc1ccc(N2C[C@H]3CN(CCCS(=O)(=O)CCN)C[C@@H]2C(C)(C)C3)cc1 [Example 6, 2-((3-((1R,5S)-6-(4-ethoxyphenyl)-9,9-dimethyl-3,6-diazabicyclo[3.2.2]nonan-3-yl)propyl)sulfonyl)ethan-1-amine]
IC50 (LOX): 58 µM | IC50 (LOXL2; [3]): 2.5 µM

NCCS(=O)(=O)CCN1CCCN(c2ccc(N3CCS(=O)(=O)CC3)cc2)CC1 [Example 3, 4-(4-(4-(2-((2-aminoethyl)sulfonyl)ethyl)-1,4-diazepan-1-yl)phenyl) thiomorpholine-1,1-dioxide]
IC50 (LOXL2; [4]): 8.1 µM | IC50 [1]: > 100 µM | IC50 [2]: > 100 µM

CC1(C)C[C@@H]2CN(C(=O)C(F)S(=O)(=O)CCN)C[C@H]1N(c1ccc(N3CCS(=O)(=O)CC3)cc1)C2 (stereo partly drawn) [Example 17, 2-((2-aminoethyl)-sulfonyl)-1-((1S,5S)-6-(4-(1,1-dioxido-thiomorpholino)-phenyl)-9,9-dimethyl-3,6-diaza-bicyclo[3.2.2]nonan-3-yl)-2-fluoroethan-1-one]
IC50 (LOXL2; [5]): 0.11 µM

CCOc1ccc(N2C[C@H]3CN(C(=O)c4ccc(S(=O)(=O)CCN)cc4)C[C@@H]2C(C)(C)C3)cc1 [Example 31, (4-((2-aminoethyl)sulfonyl)phenyl)((1S,5S)-6-(4-ethoxyphenyl)-9,9-dimethyl-3,6-diazabicyclo[3.2.2]nonan-3-yl)methanone]
IC50 (LOX): 96 µM | IC50 (LOXL2; [4]): 16 µM

CC1(C)C[C@@H]2CN(C(=O)CS(=O)(=O)CCN)C[C@H]1N(c1ccc(N3CCS(=O)(=O)CC3)cc1)C2 [Example 10, 2-((2-aminoethyl)-sulfonyl)-1-((1S,5S)-6-(4-(1,1-dioxido-thiomorpholino)-phenyl)-9,9-dimethyl-3,6-diaza-bicyclo[3.2.2]nonan-3-yl)ethan-1-one]
IC50 (LOXL2; [3]): 0.94 µM

CC1(C)C[C@@H]2CN(C(=O)N3CCS(=O)(=O)CC3)C[C@H]1N(c1ccc(OCCCS(=O)(=O)CCN)cc1)C2 [Example 35, ((1S,5S)-6-(4-(3-((2-aminoethyl)sulfonyl)-propoxy)phenyl)-9,9-dimethyl-3,6-diaza-bicyclo[3.2.2]nonan-3-yl)(1,1-dioxido-thiomorpholino) methanone]
IC50 (LOXL2; [3]): 6.7 µM

CCOc1ccc(N2C[C@H]3CN(C(=O)C(C)S(=O)(=O)CCN)C[C@@H]2C(C)(C)C3)cc1 (mixture of isomers) [Example 39, 2-((2-aminoethyl)sulfonyl)-1-((1S,5S)-6-(4-ethoxyphenyl)-9,9-dimethyl-3,6-diazabicyclo[3.2.2]nonan-3-yl)propan-1-one]
IC50 (LOX): 10 µM | IC50 (LOXL2; [5]): 0.41 µM
